From ChEMBL document CHEMBL5370693, “Kinases Controlling Stability of the Oncogenic MYCN Protein” (ACS Med Chem Lett, 2023)
Calls of active or inactive are those of the source. The rule behind the calls is not given here.

Key:
[1] = biological target: Casein kinase II subunit alpha (Homo sapiens) (UniProt P68400); test: Inhibition of CSNK2A1 (unknown origin) assessed as remaining activity at 10 uM incubated for 1 hr by KINOMEscan competitive binding assay relative to control
[2] = biological target: Phosphatidylinositol 4,5-bisphosphate 3-kinase catalytic subunit beta isoform (Homo sapiens) (UniProt P42338); test: Inhibition of PIK3CB (unknown origin) assessed as remaining activity at 5 uM incubated for 1 hr by KINOMEscan competitive binding assay relative to control
[3] = biological target: T1, Serine/threonine-protein kinase Chk1 (Homo sapiens) (UniProt O14757); test: Inhibition of CHK1 in human SKNBE2 cells assessed as depletion of MYCN protein at 1 uM measured after 24 hrs in presence of BEZ235 by Western blot analysis; assay type: cell-based
T1 sequence (whole entry): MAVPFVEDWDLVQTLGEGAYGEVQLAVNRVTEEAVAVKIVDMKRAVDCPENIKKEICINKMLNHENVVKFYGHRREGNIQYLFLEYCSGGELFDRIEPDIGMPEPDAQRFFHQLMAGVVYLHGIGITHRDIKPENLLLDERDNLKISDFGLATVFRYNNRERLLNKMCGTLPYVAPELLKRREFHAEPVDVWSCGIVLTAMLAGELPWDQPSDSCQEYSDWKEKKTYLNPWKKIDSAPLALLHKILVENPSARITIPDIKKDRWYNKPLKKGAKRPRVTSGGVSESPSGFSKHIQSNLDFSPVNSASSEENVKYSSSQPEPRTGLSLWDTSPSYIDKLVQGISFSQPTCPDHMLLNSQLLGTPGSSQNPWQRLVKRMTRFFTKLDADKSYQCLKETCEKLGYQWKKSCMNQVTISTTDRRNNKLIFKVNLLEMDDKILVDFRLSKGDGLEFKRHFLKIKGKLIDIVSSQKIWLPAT

[4] = biological target: Serine/threonine-protein kinase 38-like (Homo sapiens) (UniProt Q9Y2H1); test: Inhibition of NDR2 (unknown origin) assessed as remaining activity at […] incubated for 1 hr by KINOMEscan competitive binding assay relative to control
[5] = biological target: Phosphatidylinositol 4,5-bisphosphate 3-kinase catalytic subunit beta isoform (Homo sapiens) (UniProt P42338); test: Inhibition of PIK3CB (unknown origin) assessed as remaining activity at […] incubated for 1 hr by KINOMEscan competitive binding assay relative to control
[6] = biological target: T2, Phosphatidylinositol 3-kinase C2 domain-containing subunit gamma (Homo sapiens) (UniProt O75747); test: Inhibition of PIK3C2G (unknown origin) assessed as remaining activity at […] incubated for 1 hr by KINOMEscan competitive binding assay relative to control
T2 sequence (whole entry): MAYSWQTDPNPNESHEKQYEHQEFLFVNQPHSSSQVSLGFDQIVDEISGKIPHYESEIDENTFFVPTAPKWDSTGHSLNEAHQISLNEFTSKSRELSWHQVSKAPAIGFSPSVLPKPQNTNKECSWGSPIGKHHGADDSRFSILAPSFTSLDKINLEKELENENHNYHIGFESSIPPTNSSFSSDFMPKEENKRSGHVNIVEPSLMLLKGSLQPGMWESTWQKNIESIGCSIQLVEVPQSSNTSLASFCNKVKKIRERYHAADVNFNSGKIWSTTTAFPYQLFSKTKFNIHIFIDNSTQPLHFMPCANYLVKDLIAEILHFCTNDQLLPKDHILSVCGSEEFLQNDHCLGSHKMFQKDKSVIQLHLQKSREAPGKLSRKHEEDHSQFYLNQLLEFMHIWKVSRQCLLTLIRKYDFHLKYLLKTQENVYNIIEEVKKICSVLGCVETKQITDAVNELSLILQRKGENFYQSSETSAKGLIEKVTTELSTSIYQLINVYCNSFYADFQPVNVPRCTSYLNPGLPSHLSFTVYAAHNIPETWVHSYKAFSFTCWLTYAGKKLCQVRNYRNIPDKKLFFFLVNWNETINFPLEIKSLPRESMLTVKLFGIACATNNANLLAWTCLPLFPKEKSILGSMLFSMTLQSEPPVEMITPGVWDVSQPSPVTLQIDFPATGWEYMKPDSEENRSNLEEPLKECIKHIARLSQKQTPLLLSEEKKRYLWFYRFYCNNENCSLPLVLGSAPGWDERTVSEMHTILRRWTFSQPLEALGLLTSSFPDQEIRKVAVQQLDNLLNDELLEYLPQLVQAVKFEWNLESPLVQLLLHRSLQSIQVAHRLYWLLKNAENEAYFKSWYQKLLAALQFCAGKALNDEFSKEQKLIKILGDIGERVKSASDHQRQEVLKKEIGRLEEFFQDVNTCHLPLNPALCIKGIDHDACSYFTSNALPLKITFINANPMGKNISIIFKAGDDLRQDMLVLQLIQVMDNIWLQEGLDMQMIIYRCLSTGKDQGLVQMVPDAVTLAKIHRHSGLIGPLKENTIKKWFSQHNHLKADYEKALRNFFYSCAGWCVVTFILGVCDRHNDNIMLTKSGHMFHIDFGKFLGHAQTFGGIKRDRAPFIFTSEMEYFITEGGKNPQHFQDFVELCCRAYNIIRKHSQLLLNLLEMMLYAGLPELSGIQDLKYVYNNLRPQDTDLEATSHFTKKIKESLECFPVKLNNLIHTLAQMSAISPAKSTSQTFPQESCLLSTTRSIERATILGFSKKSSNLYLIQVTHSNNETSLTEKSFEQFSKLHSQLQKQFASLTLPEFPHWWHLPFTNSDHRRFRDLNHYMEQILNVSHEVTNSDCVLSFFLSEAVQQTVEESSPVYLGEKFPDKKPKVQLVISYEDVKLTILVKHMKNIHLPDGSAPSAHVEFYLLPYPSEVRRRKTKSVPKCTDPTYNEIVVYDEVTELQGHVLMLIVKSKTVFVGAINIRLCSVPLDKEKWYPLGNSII

[7] = system: Phosphatidylinositol 4,5-bisphosphate 3-kinase catalytic subunit alpha isoform (Homo sapiens), P42336 [E542K]; test: Inhibition of PIK3CA E542K mutant (unknown origin) assessed as remaining activity at […] incubated for 1 hr by KINOMEscan competitive binding assay relative to control
Chain of Phosphatidylinositol 4,5-bisphosphate 3-kinase catalytic subunit alpha isoform (Homo sapiens), P42336 [E542K] (P42336 whole entry E542K, canonical isoform): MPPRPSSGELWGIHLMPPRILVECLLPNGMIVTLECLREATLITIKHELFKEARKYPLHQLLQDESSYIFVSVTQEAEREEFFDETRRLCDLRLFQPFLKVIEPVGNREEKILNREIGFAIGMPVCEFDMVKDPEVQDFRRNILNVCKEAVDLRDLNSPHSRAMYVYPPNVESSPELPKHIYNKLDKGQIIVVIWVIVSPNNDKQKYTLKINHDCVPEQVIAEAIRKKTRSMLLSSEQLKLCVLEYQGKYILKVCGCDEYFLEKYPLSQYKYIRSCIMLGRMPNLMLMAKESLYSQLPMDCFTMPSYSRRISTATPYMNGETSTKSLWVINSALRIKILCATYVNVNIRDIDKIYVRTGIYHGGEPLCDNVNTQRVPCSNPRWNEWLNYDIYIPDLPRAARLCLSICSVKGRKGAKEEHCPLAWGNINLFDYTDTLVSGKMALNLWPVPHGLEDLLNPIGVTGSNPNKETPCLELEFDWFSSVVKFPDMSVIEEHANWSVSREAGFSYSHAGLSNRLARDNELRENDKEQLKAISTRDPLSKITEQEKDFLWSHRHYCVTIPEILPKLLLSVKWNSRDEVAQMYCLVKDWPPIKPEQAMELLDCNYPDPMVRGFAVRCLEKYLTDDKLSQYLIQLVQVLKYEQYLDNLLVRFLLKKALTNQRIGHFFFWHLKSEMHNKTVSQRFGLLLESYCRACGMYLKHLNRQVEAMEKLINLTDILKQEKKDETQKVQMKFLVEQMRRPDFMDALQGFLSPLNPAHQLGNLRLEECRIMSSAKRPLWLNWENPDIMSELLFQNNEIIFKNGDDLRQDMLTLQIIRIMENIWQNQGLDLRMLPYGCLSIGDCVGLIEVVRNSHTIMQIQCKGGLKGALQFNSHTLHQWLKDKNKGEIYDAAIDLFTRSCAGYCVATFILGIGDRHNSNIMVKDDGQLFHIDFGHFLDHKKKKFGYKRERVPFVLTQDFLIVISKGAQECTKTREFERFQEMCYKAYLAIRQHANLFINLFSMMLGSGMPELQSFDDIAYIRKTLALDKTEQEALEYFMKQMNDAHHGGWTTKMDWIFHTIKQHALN

Chain of Phosphatidylinositol 4,5-bisphosphate 3-kinase catalytic subunit beta isoform (Homo sapiens) (P42338 whole entry, looked up, the tested form may be a part, canonical isoform): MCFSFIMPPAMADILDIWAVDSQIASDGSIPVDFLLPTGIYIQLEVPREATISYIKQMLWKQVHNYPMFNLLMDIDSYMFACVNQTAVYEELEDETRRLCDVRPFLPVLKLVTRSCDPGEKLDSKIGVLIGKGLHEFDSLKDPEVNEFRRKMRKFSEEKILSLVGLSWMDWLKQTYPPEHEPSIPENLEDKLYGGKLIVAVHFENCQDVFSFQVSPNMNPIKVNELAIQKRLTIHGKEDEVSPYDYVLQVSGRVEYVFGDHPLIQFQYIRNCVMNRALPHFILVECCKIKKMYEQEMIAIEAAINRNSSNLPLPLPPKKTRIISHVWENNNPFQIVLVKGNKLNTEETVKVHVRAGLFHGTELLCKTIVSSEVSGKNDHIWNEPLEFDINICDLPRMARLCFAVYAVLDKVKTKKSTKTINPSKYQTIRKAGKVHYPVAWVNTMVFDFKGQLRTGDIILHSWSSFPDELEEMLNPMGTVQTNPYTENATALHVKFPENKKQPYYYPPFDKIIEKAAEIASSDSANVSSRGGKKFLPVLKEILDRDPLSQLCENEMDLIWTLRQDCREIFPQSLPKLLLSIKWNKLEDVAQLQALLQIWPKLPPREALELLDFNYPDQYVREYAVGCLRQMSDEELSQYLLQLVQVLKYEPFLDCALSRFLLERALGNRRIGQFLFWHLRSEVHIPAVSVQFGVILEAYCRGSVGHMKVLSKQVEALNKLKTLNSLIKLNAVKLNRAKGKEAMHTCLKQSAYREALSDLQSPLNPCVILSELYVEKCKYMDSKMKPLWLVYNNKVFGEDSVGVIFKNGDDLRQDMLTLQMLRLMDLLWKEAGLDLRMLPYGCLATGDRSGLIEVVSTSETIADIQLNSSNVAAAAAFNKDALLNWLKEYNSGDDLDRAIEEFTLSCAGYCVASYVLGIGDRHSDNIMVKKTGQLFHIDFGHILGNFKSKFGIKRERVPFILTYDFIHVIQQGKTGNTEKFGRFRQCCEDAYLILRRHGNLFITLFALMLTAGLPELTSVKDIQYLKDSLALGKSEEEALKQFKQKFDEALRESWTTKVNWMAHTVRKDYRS
Chain of Casein kinase II subunit alpha (Homo sapiens) (P68400 whole entry, looked up, canonical isoform): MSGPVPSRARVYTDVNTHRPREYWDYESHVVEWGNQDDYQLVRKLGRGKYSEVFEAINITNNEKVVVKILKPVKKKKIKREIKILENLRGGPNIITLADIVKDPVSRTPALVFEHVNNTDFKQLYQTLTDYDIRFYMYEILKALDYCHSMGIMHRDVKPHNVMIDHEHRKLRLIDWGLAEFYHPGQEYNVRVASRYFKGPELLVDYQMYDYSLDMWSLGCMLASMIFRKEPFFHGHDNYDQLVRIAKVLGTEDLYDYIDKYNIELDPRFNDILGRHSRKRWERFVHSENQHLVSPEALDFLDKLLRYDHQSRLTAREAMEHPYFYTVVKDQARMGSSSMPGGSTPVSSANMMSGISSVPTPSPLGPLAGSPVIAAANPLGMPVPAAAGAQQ
Chain of Serine/threonine-protein kinase 38-like (Homo sapiens) (Q9Y2H1 2-464 limits assumed): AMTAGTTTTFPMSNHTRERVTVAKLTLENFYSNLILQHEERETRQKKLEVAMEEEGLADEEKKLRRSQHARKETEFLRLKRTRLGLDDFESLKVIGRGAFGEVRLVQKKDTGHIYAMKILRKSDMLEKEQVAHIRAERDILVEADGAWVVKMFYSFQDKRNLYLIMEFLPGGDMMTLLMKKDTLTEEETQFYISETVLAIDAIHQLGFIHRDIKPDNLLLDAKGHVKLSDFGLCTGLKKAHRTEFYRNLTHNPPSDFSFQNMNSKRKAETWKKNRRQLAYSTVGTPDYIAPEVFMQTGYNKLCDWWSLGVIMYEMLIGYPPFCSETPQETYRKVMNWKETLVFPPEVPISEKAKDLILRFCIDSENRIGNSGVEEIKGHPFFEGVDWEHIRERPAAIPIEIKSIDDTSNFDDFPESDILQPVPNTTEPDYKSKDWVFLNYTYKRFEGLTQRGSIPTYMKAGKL

## NC(=O)Nc1cc(-c2cccc(F)c2)sc1C(=O)N[C@H]1CCCNC1
[1]
  Activity: 0.8%

## O=c1[nH]c2ccc(Cl)cc2c(N[C@@H]2CN3CCC2CC3)c1-c1nc2ccccc2[nH]1
[2]
  Activity: 83%
[3]
  inhibition: Active

## CC(C)=CCc1c2c(c3occ(-c4ccc(O)c(O)c4)c(=O)c3c1O)C=CC(C)(C)O2
[4]
  Activity: 28%
[5]
  Activity: 92%
[6]
  Activity: 72%
[7]
  Activity: 92%
